# In patent US10836725B2, “Modulators of the integrated stress pathway” (Calico Life Sciences LLC, priority 2016, dated 2020):
# pEC50: −log10 of the molar value.
# Tested on: ATF4 luciferase reporter
# Assay: ATF4-Luc assay in HEK293T cells carrying the ATF4 luciferase reporter (in vitro model of VWMD)
# Format: cell-based, human
# Conditions: 1 μg/mL tunicamycin, 7 hours, luminescence (One Glo)
# In short: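 Reporter cells were stably generated by retroviral transduction and puromycin selection, then seeded at 30,000 cells/well. Next day, cells received 1 μg/mL tunicamycin with 200 nM test compound for 7 h, and luciferase luminescence was read with a one-step reagent. Values reported as EC50.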
"pEC50 (Homo sapiens, HEK-293T)",SMILES,pEC50
< 5.70,"O=C(COc1ccc(Cl)c(F)c1)NC12CC(C(=O)NCCc3c[nH]cn3)(C1)C2 [Compound 188, 3-[2-(4-chloro-3-fluorophenoxy)acetamido]-N-[2-(1H-imidazol-4-yl)ethyl]bicyclo[1.1.1]pentane-1-carboxamide]",–
< 5.70,"Cc1cccc([C@@H](C)NC(=O)C23CC(NC(=O)COc4ccc(Cl)c(F)c4)(C2)C3)c1 [Compound 189, 3-[2-(4-chloro-3-fluorophenoxy)acetamido]-N-[(1R)-1-(3-methylphenyl)ethyl]bicyclo[1.1.1]pentane-1-carboxamide]",–
< 5.70,"Cc1ccc(C)c(CNC(=O)C23CC(NC(=O)COc4ccc(Cl)c(F)c4)(C2)C3)c1 [Compound 190, 3-[2-(4-chloro-3-fluorophenoxy)acetamido]-N-[(2,5-dimethylphenyl)methyl]bicyclo[1.1.1]pentane-1-carboxamide]",–
5.70 to 6.00,"O=C(COc1ccc(Cl)c(F)c1)NC12CC(C(=O)NCc3cn4ccccc4n3)(C1)C2 [Compound 191, 3-[2-(4-chloro-3-fluorophenoxy)acetamido]-N-[(imidazo[1,2-a]pyridin-2-yl)methyl]bicyclo[1.1.1]pentane-1-carboxamide]",–
< 5.70,"Cc1ccsc1CNC(=O)C12CC(NC(=O)COc3ccc(Cl)c(F)c3)(C1)C2 [Compound 192, 3-[2-(4-chloro-3-fluorophenoxy)acetamido]-N-[(3-methylthiophen-2-yl)methyl]bicyclo[1.1.1]pentane-1-carboxamide]",–
6.30 to 6.60,"O=C(COc1ccc(Cl)c(F)c1)NC12CC(C(=O)NCc3ccc(Cl)c(F)c3)(C1)C2 [Compound 193, 3-[2-(4-chloro-3-fluorophenoxy)acetamido]-N-[(4-chloro-3-fluorophenyl)methyl]bicyclo[1.1.1]pentane-1-carboxamide]",–
–,O=C(COc1ccc(Cl)c(F)c1)NC12CC(C(=O)NCCc3c[nH]c4ccccc34)(C1)C2 [Compound 194],> 6.60
< 5.70,"COc1ccc(CNC(=O)C23CC(NC(=O)COc4ccc(Cl)c(F)c4)(C2)C3)cc1 [Compound 195, 3-[2-(4-chloro-3-fluorophenoxy)acetamido]-N-[(4-methoxyphenyl)methyl]bicyclo[1.1.1]pentane-1-carboxamide]",–
< 5.70,"Cn1cnc(CNC(=O)C23CC(NC(=O)COc4ccc(Cl)c(F)c4)(C2)C3)c1 [Compound 196, 3-[2-(4-chloro-3-fluorophenoxy)acetamido]-N-[(1-methyl-1H-imidazol-4-yl)methyl]bicyclo[1.1.1]pentane-1-carboxamide]",–
6.00 to 6.30,"Cc1ccccc1CNC(=O)C12CC(NC(=O)COc3ccc(Cl)c(F)c3)(C1)C2 [Compound 197, 3-[2-(4-chloro-3-fluorophenoxy)acetamido]-N-[(2-methylphenyl)methyl]bicyclo[1.1.1]pentane-1-carboxamide]",–
< 5.70,"C[C@@H](NC(=O)C12CC(NC(=O)COc3ccc(Cl)c(F)c3)(C1)C2)c1ccc(Cl)cc1 [Compound 198, 3-[2-(4-chloro-3-fluorophenoxy)acetamido]-N-[(1R)-1-(4-chlorophenyl)ethyl]bicyclo[1.1.1]pentane-1-carboxamide]",–
< 5.70,"NS(=O)(=O)c1ccc(CCNC(=O)C23CC(NC(=O)COc4ccc(Cl)c(F)c4)(C2)C3)cc1 [Compound 199, 3-[2-(4-chloro-3-fluorophenoxy)acetamido]-N-[2-(4-sulfamoylphenyl)ethyl]bicyclo[1.1.1]pentane-1-carboxamide]",–
< 5.70,"COc1ncc(CNC(=O)C23CC(NC(=O)COc4ccc(Cl)c(F)c4)(C2)C3)cn1 [Compound 200, 3-[2-(4-chloro-3-fluorophenoxy)acetamido]-N-[(2-methoxypyrimidin-5-yl)methyl]bicyclo[1.1.1]pentane-1-carboxamide]",–
5.70 to 6.00,"O=C(COc1ccc(Cl)c(F)c1)NC12CC(C(=O)NCc3noc(-c4ccccc4)n3)(C1)C2 [Compound 201, 3-[2-(4-chloro-3-fluorophenoxy)acetamido]-N-[(5-phenyl-1,2,4-oxadiazol-3-yl)methyl]bicyclo[1.1.1]pentane-1-carboxamide]",–
< 5.70,"COc1ccc(CNC(=O)C23CC(NC(=O)COc4ccc(Cl)c(F)c4)(C2)C3)cc1OC [Compound 202, 3-[2-(4-chloro-3-fluorophenoxy)acetamido]-N-[(3,4-dimethoxyphenyl)methyl]bicyclo[1.1.1]pentane-1-carboxamide]",–
< 5.70,"O=C(COc1ccc(Cl)c(F)c1)NC12CC(C(=O)NCc3ccccc3OCC(F)F)(C1)C2 [Compound 203, 3-[2-(4-chloro-3-fluorophenoxy)acetamido]-N-{[2-(2,2-difluoroethoxy)phenyl]methyl}bicyclo[1.1.1]pentane-1-carboxamide]",–
> 6.60,"O=C(COc1ccc(Cl)c(F)c1)NC12CC(C(=O)NCCCc3ccc(F)cc3)(C1)C2 [Compound 204, 3-[2-(4-chloro-3-fluorophenoxy)acetamido]-N-[3-(4-fluorophenyl)propyl]bicyclo[1.1.1]pentane-1-carboxamide]",–

"pEC50 (Homo sapiens, HEK-293T)",SMILES,pEC50
< 5.70,"O=C(COc1ccc(Cl)c(F)c1)NC12CC(C(=O)NCc3cccnn3)(C1)C2 [Compound 205, 3-[2-(4-chloro-3-fluorophenoxy)acetamido]-N-[(pyridazin-3-yl)methyl]bicyclo[1.1.1]pentane-1-carboxamide]",–
< 5.70,"COc1c(F)cc(CNC(=O)C23CC(NC(=O)COc4ccc(Cl)c(F)c4)(C2)C3)cc1F [Compound 206, 3-[2-(4-chloro-3-fluorophenoxy)acetamido]-N-[(3,5-difluoro-4-methoxyphenyl)methyl]bicyclo[1.1.1]pentane-1-carboxamide]",–
< 5.70,CC(C)Oc1ccc(CNC(=O)C23CC(NC(=O)COc4ccc(Cl)c(F)c4)(C2)C3)cc1 [Compound 207],–
< 5.70,"O=C(COc1ccc(Cl)c(F)c1)NC12CC(C(=O)NCc3nccs3)(C1)C2 [Compound 208, 3-[2-(4-chloro-3-fluorophenoxy)acetamido]-N-[(1,3-thiazol-2-yl)methyl]bicyclo[1.1.1]pentane-1-carboxamide]",–
< 5.70,"COc1cc(F)cc(CNC(=O)C23CC(NC(=O)COc4ccc(Cl)c(F)c4)(C2)C3)c1 [Compound 209, 3-[2-(4-chloro-3-fluorophenoxy)acetamido]-N-[(3-fluoro-5-methoxyphenyl)methyl]bicyclo[1.1.1]pentane-1-carboxamide]",–
< 5.70,"O=C(COc1ccc(Cl)c(F)c1)NC12CC(C(=O)NCc3ccccc3F)(C1)C2 [Compound 210, 3-[2-(4-chloro-3-fluorophenoxy)acetamido]-N-[(2-fluorophenyl)methyl]bicyclo[1.1.1]pentane-1-carboxamide]",–
5.70 to 6.00,"Cc1cc(CCNC(=O)C23CC(NC(=O)COc4ccc(Cl)c(F)c4)(C2)C3)cc(C)n1 [Compound 211, 3-[2-(4-chloro-3-fluorophenoxy)acetamido]-N-[2-(2,6-dimethylpyridin-4-yl)ethyl]bicyclo[1.1.1]pentane-1-carboxamide]",–
< 5.70,"CC(C)Cc1cc(CNC(=O)C23CC(NC(=O)COc4ccc(Cl)c(F)c4)(C2)C3)on1 [Compound 212, 3-[2-(4-chloro-3-fluorophenoxy)acetamido]-N-{[3-(2-methylpropyl)-1,2-oxazol-5-yl]methyl}bicyclo[1.1.1]pentane-1-carboxamide]",–
< 5.70,"O=C(COc1ccc(Cl)c(F)c1)NC12CC(C(=O)NCCc3ccc(C(F)(F)F)cn3)(C1)C2 [Compound 213, 3-[2-(4-chloro-3-fluorophenoxy)acetamido]-N-{2-[5-(trifluoromethyl)pyridin-2-yl]ethyl}bicyclo[1.1.1]pentane-1-carboxamide]",–
< 5.70,"Cc1cccc(-c2nc(CNC(=O)C34CC(NC(=O)COc5ccc(Cl)c(F)c5)(C3)C4)cs2)c1 [Compound 214, 3-[2-(4-chloro-3-fluorophenoxy)acetamido]-N-{[2-(3-methylphenyl)-1,3-thiazol-4-yl]methyl}bicyclo[1.1.1]pentane-1-carboxamide]",–
< 5.70,"O=C(COc1ccc(Cl)c(F)c1)NC12CC(C(=O)NCc3ccc(C(F)(F)F)o3)(C1)C2 [Compound 215, 3-[2-(4-chloro-3-fluorophenoxy)acetamido]-N-{[5-(trifluoromethyl)furan-2-yl]methyl}bicyclo[1.1.1]pentane-1-carboxamide]",–
< 5.70,"COc1cccc(CNC(=O)C23CC(NC(=O)COc4ccc(Cl)c(F)c4)(C2)C3)c1 [Compound 216, 3-[2-(4-chloro-3-fluorophenoxy)acetamido]-N-[(3-methoxyphenyl)methyl]bicyclo[1.1.1]pentane-1-carboxamide]",–
< 5.70,"CCc1nccc(CNC(=O)C23CC(NC(=O)COc4ccc(Cl)c(F)c4)(C2)C3)n1 [Compound 217, 3-[2-(4-chloro-3-fluorophenoxy)acetamido]-N-[(2-ethylpyrimidin-4-yl)methyl]bicyclo[1.1.1]pentane-1-carboxamide]",–
< 5.70,"O=C(COc1ccc(Cl)c(F)c1)NC12CC(C(=O)NCc3cccc(Cl)c3)(C1)C2 [Compound 219, 3-[2-(4-chloro-3-fluorophenoxy)acetamido]-N-[(3-chlorophenyl)methyl]bicyclo[1.1.1]pentane-1-carboxamide]",–
< 5.70,"Cc1noc(C)c1CCCNC(=O)C12CC(NC(=O)COc3ccc(Cl)c(F)c3)(C1)C2 [Compound 220, 3-[2-(4-chloro-3-fluorophenoxy)acetamido]-N-[3-(3,5-dimethyl-1,2-oxazol-4-yl)propyl]bicyclo[1.1.1]pentane-1-carboxamide]",–
< 5.70,"Cc1ccnc(CNC(=O)C23CC(NC(=O)COc4ccc(Cl)c(F)c4)(C2)C3)c1 [Compound 221, 3-[2-(4-chloro-3-fluorophenoxy)acetamido]-N-[(4-methylpyridin-2-yl)methyl]bicyclo[1.1.1]pentane-1-carboxamide]",–
< 5.70,"O=C(COc1ccc(Cl)c(F)c1)NC12CC(C(=O)NCc3ccno3)(C1)C2 [Compound 222, 3-[2-(4-chloro-3-fluorophenoxy)acetamido]-N-[(1,2-oxazol-5-yl)methyl]bicyclo[1.1.1]pentane-1-carboxamide]",–
